The source made the active and inactive calls. No cut-off for these calls is given here.

One test deals with PBMC. Briefly: Effects of compound on IL-2 production in anti-CD3/CD28-stimulated human PBMCs assessed as increase in IL-2 level after 2 days by ELISA. The settings on record: dose 1-10 µM, time 2.0 day. It is filed as functional, tissue-based. Background: In an ELISA, binding on a coated surface is turned into a signal by an enzyme label.
As for `O=C(c1ccccc1)N1CCN(c2cc(N3CCCCC3)c(F)cc2[N+](=O)[O-])CC1`, the Activity entry was “Dose-Dependent Effect”.

Test system in a further test: not listed separately
The test can be described thus: Effects of compound on IL-2 production in anti-CD3/CD28-stimulated human PBMCs assessed as fold increase in IL-2 level at 10 uM after 24 hrs by ELISA. It is filed as functional, PBMC.
Conditions: not given
Regarding `Nc1ncnc2c1ncn2[C@@H]1O[C@H](COP(=O)(O)CP(=O)([O-])O)[C@@H](O)[C@H]1O.[Na+]`, the “fold change (FC)” value was 1.5.

A further test has as its system Splenocyte. Briefly: Effects of compound on IL-2 production in anti-CD3/CD28-stimulated GPR174 knock out mouse spleenocytes assessed as fold increase in IL-2 level at 0.3 uM after 2 days in presence of NECA. It is filed as functional, cell-based. Particulars: time 2.0 day.
As to `O=C(c1ccccc1)N1CCN(c2cc(N3CCCCC3)c(F)cc2[N+](=O)[O-])CC1`, the result was inactive.

A further test deals with Splenocyte. Briefly: Effects of compound on IL-2 production in anti-CD3/CD28-stimulated wild type mouse spleenocytes assessed as fold increase in IL-2 level at 0.3 uM after 2 days in presence of […] and NECA. The format is functional. The settings on record: time 2 day.
With `O=C(c1ccccc1)N1CCN(c2cc(N3CCCCC3)c(F)cc2[N+](=O)[O-])CC1`, the “fold change (FC)” value is 4.9.

The target of the next test is T1, Probable G-protein coupled receptor 174 (Homo sapiens, UniProt Q9BXC1). The test can be described thus: Inverse agonist activity at human GPR174 assessed as fold decrease in Gs signalling activity by CRA. The settings on record: filed as inverse agonist. The format is functional.
T1 sequence (Q9BXC1 whole entry): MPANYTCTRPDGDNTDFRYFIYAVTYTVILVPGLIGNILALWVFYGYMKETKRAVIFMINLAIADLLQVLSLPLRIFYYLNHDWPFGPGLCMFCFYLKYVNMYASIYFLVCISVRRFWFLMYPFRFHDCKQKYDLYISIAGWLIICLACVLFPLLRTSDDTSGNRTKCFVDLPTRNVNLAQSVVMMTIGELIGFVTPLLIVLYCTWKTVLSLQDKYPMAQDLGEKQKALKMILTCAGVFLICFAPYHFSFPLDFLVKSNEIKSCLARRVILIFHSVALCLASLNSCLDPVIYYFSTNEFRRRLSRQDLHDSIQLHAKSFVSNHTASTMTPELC
In the case of `CCOc1cccc(C2C3=C(CCCC3=O)NC3=C2C(=O)c2ccccc23)c1` (stereo unspecified), the fold change (FC) is 1.6.

Regarding `CCOC(=O)N1CCN(c2cc(N3CCCCC3C)c(F)cc2[N+](=O)[O-])CC1` (stereo unspecified), the fold change (FC) was 1.

Regarding `O=C1CCCC2=C1C(c1ccc(OC(F)(F)F)cc1)C1=C(N2)c2ccccc2C1=O` (stereo unspecified), the fold change (FC) was 1.2.

Consider `CS(=O)(=O)c1ccc(C2C3=C(CCCC3=O)NC3=C2C(=O)c2ccccc23)cc1` (stereo unspecified), for which the fold change (FC) was determined as 3.3.

With `CC(C)Oc1ccc(C2C3=C(CCCC3=O)NC3=C2C(=O)c2ccccc23)cc1` (stereo unspecified), the fold change (FC) turned out to be 0.6.

Consider `O=C(c1ccccc1)N1CCN(c2cc(N3CCCCC3)c(F)cc2[N+](=O)[O-])CC1`, for which the fold change (FC) stood at 0.3.

With `CC(C)c1ccc(C2C3=C(CCCC3=O)NC3=C2C(=O)c2ccccc23)cc1` (stereo unspecified), the fold change (FC) was 1.2.

As to `Cc1ccc(S(=O)(=O)N2CCN(c3cc(N4CCCCC4)c(F)cc3[N+](=O)[O-])CC2)cc1`, the fold change (FC) was 1.7.

As to `O=C1CCCC2=C1C(c1ccc(OCCO)cc1)C1=C(N2)c2ccccc2C1=O` (stereo unspecified), the fold change (FC) is 4.4.

Turning to `CC(C)(C)Oc1ccc(C2C3=C(CCCC3=O)NC3=C2C(=O)c2ccccc23)cc1` (stereo unspecified), the fold change (FC) was found to be 1.3.

On to `CCCCOc1ccc(C2C3=C(CCCC3=O)NC3=C2C(=O)c2ccccc23)cc1` (stereo unspecified), for which the fold change (FC) is 1.2.

Take `CCC(=O)N1CCN(c2cc(N3CCCCC3)c(F)cc2[N+](=O)[O-])CC1`: the fold change (FC) was found to be 0.5.

As for `CC(=O)N1CCN(c2cc(N3CCCCC3)c(F)cc2[N+](=O)[O-])CC1`, the fold change (FC) was 0.3.

`Cc1ccc(S(=O)(=O)N2CCN(c3cc(N4CCC(C)CC4)c(F)cc3[N+](=O)[O-])CC2)cc1`: the fold change (FC) is 1.1.

As for `CCOC(=O)N1CCN(c2cc(N3CCC(C)CC3)c(F)cc2[N+](=O)[O-])CC1`, the fold change (FC) is 0.4.

Regarding `CCC(=O)N1CCN(c2cc(N3CCC(C)CC3)c(F)cc2[N+](=O)[O-])CC1`, the fold change (FC) is 0.4.

As to `CCOc1ccc(C2C3=C(CCCC3=O)NC3=C2C(=O)c2ccccc23)cc1` (stereo unspecified), the fold change (FC) stood at 0.4.

In the case of `CCc1ccc(C2C3=C(CCCC3=O)NC3=C2C(=O)c2ccccc23)cn1` (stereo unspecified), the fold change (FC) is 2.

`CCCOc1ccc(C2C3=C(CCCC3=O)NC3=C2C(=O)c2ccccc23)cc1` (stereo unspecified): the fold change (FC) worked out at 1.

Turning to `CCc1ccc(C2C3=C(CCCC3=O)NC3=C2C(=O)c2ccccc23)cc1` (stereo unspecified), the fold change (FC) was 0.5.

Consider `O=[N+]([O-])c1cc(F)c(N2CCCCC2)cc1N1CCN(S(=O)(=O)c2ccccc2)CC1`, for which the fold change (FC) was found to be 0.5.

Take `O=C1CCCC2=C1C(c1ccc(Oc3ccccc3)cc1)C1=C(N2)c2ccccc2C1=O` (stereo unspecified): the fold change (FC) was 1.

As to `O=C1CCCC2=C1C(c1ccc(OC3CCCC3)cc1)C1=C(N2)c2ccccc2C1=O` (stereo unspecified), the fold change (FC) is 1.

Take `COc1ccc(C2C3=C(CCCC3=O)NC3=C2C(=O)c2ccccc23)cc1` (stereo unspecified): the fold change (FC) was determined as 1.

`O=C1CCCC2=C1C(c1ccc(OC(F)F)cc1)C1=C(N2)c2ccccc2C1=O` (stereo unspecified): the fold change (FC) was 1.2.

With `O=C1CCCC2=C1C(c1ccc(-c3ccccc3)cc1)C1=C(N2)c2ccccc2C1=O` (stereo unspecified), the fold change (FC) amounted to 2.5.

Take `O=C1CCCC2=C1C(c1ccc3c(c1)OCCO3)C1=C(N2)c2ccccc2C1=O` (stereo unspecified): the fold change (FC) was 2.6.

Regarding `CCCCCCOc1ccc(C2C3=C(CCCC3=O)NC3=C2C(=O)c2ccccc23)cc1` (stereo unspecified), the fold change (FC) came to 0.5.

In the case of `CC1CCN(c2cc(N3CCN(C(=O)c4cccs4)CC3)c([N+](=O)[O-])cc2F)CC1`, the fold change (FC) came out at 0.4.

Turning to `Cc1nnc(-c2ccc(C3C4=C(CCCC4=O)NC4=C3C(=O)c3ccccc34)cc2)o1` (stereo unspecified), the fold change (FC) is 2.8.

For `CCCC(=O)N1CCN(c2cc(N3CCCCC3)c(F)cc2[N+](=O)[O-])CC1`, the fold change (FC) was found to be 0.9.

For `CCOC(=O)N1CCN(c2cc(N3CCCCC3)c(F)cc2[N+](=O)[O-])CC1`, the fold change (FC) amounted to 0.3.

As to `C=C(C)COc1ccc(NC(=O)Nc2ccccc2)cc1`, the fold change (FC) was determined as 0.5.

Regarding `C=CCOc1ccc(C2C3=C(CCCC3=O)NC3=C2C(=O)c2ccccc23)cc1` (stereo unspecified), the fold change (FC) amounted to 1.2.

Consider `CC(=O)N1CCN(c2cc(N3CCC(C)CC3)c(F)cc2[N+](=O)[O-])CC1`, for which the fold change (FC) was 0.8.

With `O=[N+]([O-])c1cc(F)c(N2CCCCCC2)cc1N1CCN(S(=O)(=O)c2ccccc2)CC1`, the fold change (FC) was 1.8.

Turning to `CCOc1ccc(C2C3=C(CCCC3=O)NC3=C2C(=O)c2ccccc23)cn1` (stereo unspecified), the fold change (FC) worked out at 0.6.

On to `O=C1CCCC2=C1C(c1ccc(Cl)cc1)C1=C(N2)c2ccccc2C1=O` (stereo unspecified), for which the fold change (FC) is 3.

Take `CC(C)C(=O)N1CCN(c2cc(N3CCCCC3C)c(F)cc2[N+](=O)[O-])CC1` (stereo unspecified): the fold change (FC) was 0.8.

As for `O=C1CCCC2=C1C(c1ccc([N+](=O)[O-])cc1)C1=C(N2)c2ccccc2C1=O` (stereo unspecified), the fold change (FC) turned out to be 2.7.

A further test concerns Splenocyte. The test can be described thus: Effects of compound on IL-2 production in anti-CD3/CD28-stimulated wild type mouse spleenocytes assessed as fold increase in IL-2 level at 0.3 uM after 2 days in presence of NECA. The format is functional. Particulars: time 2 day.
On to `O=C(c1ccccc1)N1CCN(c2cc(N3CCCCC3)c(F)cc2[N+](=O)[O-])CC1`, for which the “fold change (FC)” value was 1.7.

The next test concerns the target T1, Probable G-protein coupled receptor 174. Briefly: Antagonist activity at human GPR174 by CRA. The format is functional.
Conditions: not given
`Cc1ccccc1Nc1nnc(-c2ccc(C)c(S(N)(=O)=O)c2)c2ccccc12` yielded a concentration for a half-maximal effect (EC50) of 500 nM.

By EC50 is commonly meant the midpoint of the concentration-response curve. A lower EC50 goes with higher potency in that assay.
